From PMC6364417, “Kinase inhibitor library screening identifies synergistic drug combinations effective in sensitive and resistant melanoma cells” (Journal of Experimental & Clinical Cancer Research : CR, 2019) come the findings set out here.

Molecules are shown by their SMILES.

Holding throughout (test): Kinase inhibitor library screening, PrestoBlue cell viability, 1 or 10 μM, 72 h
Data set [1] relates to 501Mel-GP cells (Dabrafenib-resistant). The note with it: 501Mel GP, 72 h.
Data set [2] concerns 501Mel cells (parental). The following applies: 501Mel Parental, 72 h. In short, it runs like this:
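Normalised to untreated controls, viability percentages came from PrestoBlue measured on a microplate reader following 72 h incubation with drug. Each line was assayed at least twice.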

Data set [3] relates to IGR37-GP cells (Dabrafenib-resistant). The note with it: IGR37 GP, 72 h.
Data set [4] deals with IGR37-XP cells (Vemurafenib-resistant). The note with it: IGR37 XP, 72 h.
Data set [5] deals with A375 cells (parental). The following applies: A375 Parental, 72 h.
For data set [6], the system named is A375-GP cells (Dabrafenib-resistant). The following applies: A375 GP, 72 h.
For data set [7], the system named is 501Mel-XP cells (Vemurafenib-resistant). The following applies: 501Mel XP, 72 h.
For data set [8], the system named is IGR37 cells (parental). The following applies: IGR37 Parental, 72 h.
Data set [9] relates to A375-XP cells (Vemurafenib-resistant). The following applies: A375 XP, 72 h.

For the compound `CNC(=O)c1cc(Oc2ccc(NC(=O)Nc3cc(C(C)(C)C)nn3-c3ccc4ncccc4c3)c(F)c2)ccn1` [DCC-2036 (Rebastinib)], the “cell viability (kinase inhibitor library screening)” value in data set [1] (1μΜ) is recorded as 100.3%; in data set [1] (10μΜ), 2.0%; in [2] (1μΜ), 81.5%; in data set [2] (10μΜ), 2.8%; in data set [3] (10μΜ) it was 8.3%; in data set [4] (1μΜ), 107.3%. Besides, the “cell viability (kinase inhibitor library screening)” value was 2.4% in data set [4] (10μΜ); 1.8% in [5] (10μΜ); 55.4% in data set [5] (1μΜ); 96.7% in data set [6] (1μΜ); 3.6% in data set [6] (10μΜ); 102.9% in data set [7] (1μΜ). For the same compound, the “cell viability (kinase inhibitor library screening)” value in [7] (10μΜ) amounted to 0.261%; in [8] (1μΜ), 67.0%; in data set [8] (10μΜ), 20.7%; in [9] (1μΜ), 76.3%; in data set [9] (10μΜ), 2.5%.
Take `CC(C)(C)c1nc(-c2cccc(NS(=O)(=O)c3c(F)cccc3F)c2F)c(-c2ccnc(N)n2)s1` [Dabrafenib (GSK2118436)]: in [1] (1μΜ, in %), the “Cell viability in kinase inhibitor library screening, 501Mel GP, 1μΜ” value was found to be 96.2. The “Cell viability in kinase inhibitor library screening, 501Mel GP, 10μΜ” value in data set [1] (10μΜ, in %) worked out at 92.9. Moreover, the “Cell viability in kinase inhibitor library screening, 501Mel Parental, 1μΜ” value in [2] (1μΜ, in %) is given as 51.2. In data set [2] (10μΜ, in %), the “Cell viability in kinase inhibitor library screening, 501Mel Parental, 10μΜ” value turned out to be 72.8. In data set [3] (10μΜ), this compound yielded a Cell viability in kinase inhibitor library screening, IGR37 GP, 10μΜ of 97.8%. Besides, the “Cell viability in kinase inhibitor library screening, IGR37 GP, 1μΜ” value in [3] (1μΜ, in %) was determined as 94.6. This compound also yielded a Cell viability in kinase inhibitor library screening, IGR37 XP, 10μΜ in [4] (10μΜ) of 78.9%. In addition, in data set [4] (1μΜ, in %), the “Cell viability in kinase inhibitor library screening, IGR37 XP, 1μΜ” value came out at 93.2. The “Cell viability in kinase inhibitor library screening, A375 Parental, 10μΜ” value in data set [5] (10μΜ) is reported as 26.9. In addition, the “Cell viability in kinase inhibitor library screening, A375 Parental, 1μΜ” value in [5] (1μΜ) stood at 17.6. Besides, in data set [6] (1μΜ), the “Cell viability in kinase inhibitor library screening, A375 GP, 1μΜ” value was 65.8. Moreover, the “Cell viability in kinase inhibitor library screening, A375 GP, 10μΜ” value in [6] (10μΜ) is given as 52.9. In addition, the “Cell viability in kinase inhibitor library screening, 501Mel XP, 1μΜ” value in data set [7] (1μΜ, in %) came to 79.2. For the same compound, the “Cell viability in kinase inhibitor library screening, 501Mel XP, 10μΜ” value in [7] (10μΜ, in %) came to 97.5. Besides, the “Cell viability in kinase inhibitor library screening, IGR37 Parental, 1μΜ” value in data set [8] (1μΜ, in %) is 34.2. The “Cell viability in kinase inhibitor library screening, IGR37 Parental, 10μΜ” value in data set [8] (10μΜ, in %) came to 44.5. Moreover, in data set [9] (1μΜ), the “Cell viability in kinase inhibitor library screening, A375 XP, 1μΜ” value is recorded as 73.0. For the same compound, the “Cell viability in kinase inhibitor library screening, A375 XP, 10μΜ” value in data set [9] (10μΜ) stood at 48.7.
Take `COc1cc2ncnc(Nc3ccc(F)c(Cl)c3)c2cc1NC(=O)/C=C/CN1CCCCC1` [Dacomitinib (PF299804,PF-00299804)]: the “cell viability, 501Mel GP, 1μΜ” value in [1] (1μΜ, in %) came out at 106.7. For the same compound, the “cell viability, 501Mel GP, 10μΜ” value in [1] (10μΜ, in %) was -0.4. Moreover, the “cell viability, 501Mel Parental, 10μΜ” value in data set [2] (10μΜ, in %) worked out at 0.5. The compound further yielded a cell viability, IGR37 GP, 10μΜ in data set [3] (10μΜ) of 2.6%. Also, the cell viability, IGR37 XP, 10μΜ in data set [4] (10μΜ) amounted to 1.3%. Further, in data set [4] (1μΜ, in %), the “cell viability, IGR37 XP, 1μΜ” value is recorded as 80.1. The “cell viability, A375 Parental, 1μΜ” value in [5] (1μΜ, in %) stood at 94.4. Besides, in data set [5] (10μΜ, in %), the “cell viability, A375 Parental, 10μΜ” value is on record as 3.4. Also, the “cell viability, A375 GP, 1μΜ” value in [6] (1μΜ, in %) worked out at 97.2. In addition, in [6] (10μΜ, in %), the “cell viability, A375 GP, 10μΜ” value was 1.9. The “cell viability, 501Mel XP, 10μΜ” value in data set [7] (10μΜ, in %) is -0.2. Moreover, the “cell viability, IGR37 Parental, 10μΜ” value in data set [8] (10μΜ, in %) was 1.1. Besides, in data set [9] (1μΜ, in %), the “cell viability, A375 XP, 1μΜ” value turned out to be 96.8. The “cell viability, A375 XP, 10μΜ” value in data set [9] (10μΜ, in %) is listed as 1.1.
